From patent US20230391772A1, “METHODS AND COMPOSITIONS FOR TARGETED PROTEIN DEGRADATION” (Ranok Therapeutics (Hangzhou) Co. Ltd., priority 2020, published 2023)

Legend:
KRAS(G12C) [1] = target: T1, KRAS(G12C) (Homo sapiens, UniProt P01116, G12C); experiment: KRAS(G12C)/SOS1 homogeneous time-resolved fluorescence (HTRF) assay; set-up: purchased Cisbio 63ADK000CB16PEG; conditions: absence of GTP, 4° C. for 3 hr, read-out: KRAS (G12C) binding
How it was run: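 Three-hour incubation at 4 °C of 3-fold compound dilutions (lowest 1.02 nM) with KRAS(G12C), SOS1 and detection reagents, GTP absent. Disruption of the KRAS(G12C)/SOS1 complex detected by time-resolved fluorescence.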

KRAS(G12C) [2] = target: T1, KRAS(G12C); experiment: KRAS(G12C) Western blot protein degradation assay in LU65A cells; assay type: cell-based; set-up: LU65A human lung cancer cell line, which expresses KRAS(G12C); host or cells: LU65A; conditions: 6 hr
How it was run: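 KRAS levels read by fluorescent Western blot (β-actin as reference) on BCA-normalized lysates. Exposure to a compound concentration range at 37 °C lasted 6 hr in LU65A and 48 hr in MIA PaCa-2; DC50 taken as half-maximal degradation concentration.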

[3] = test system: MIA PaCa-2 human pancreatic carcinoma; experiment: MIA PaCa-2 CCK-8 proliferation assay; assay type: cell-based; conditions: Homo sapiens, MIA PaCa-2, 72 h, MIA PaCa-2 cells
How it was run: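 CCK-8 absorbance readout; % inhibition = 100 − (compound − blank)/(DMSO − blank) × 100, blank = medium + DMSO, no cells. Dose range 20 μM down to 1.02 nM, 3-fold steps. KRAS(G12C) copy number: MIA PaCa-2 2; NCI-H358 1; NCI-H23 1.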

HSP90a protein = target: T2, HSP90a protein (Homo sapiens, UniProt P07900); experiment: HSP90α-binding fluorescent polarization (FP) assay, BODIPY-labeled RNK04010 probe; conditions: FP competition with RNK04010 (BODIPY-labeled), 5 nM, 300 min at 25° C.
T2 construct: purchased BPS Bioscience 50298
How it was run: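 Binding was scored by fluorescence polarization after adding N-terminal HSP90a to wells holding probe and compound, with compound tested from 20 μM to 5.2 nM. Probe-dependent times at 25° C were 120 min for FITC-geldanamycin and 300 min for RNK04010-BODIPY, both at 5 nM final.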

T1 sequence (P01116 1-188 isoform P01116-2 G12C): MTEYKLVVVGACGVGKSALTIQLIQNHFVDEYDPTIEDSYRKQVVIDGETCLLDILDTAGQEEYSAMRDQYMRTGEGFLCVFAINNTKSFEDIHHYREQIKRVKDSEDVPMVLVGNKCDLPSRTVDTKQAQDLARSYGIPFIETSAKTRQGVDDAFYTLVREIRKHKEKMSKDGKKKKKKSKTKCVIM

SMILES | IC50 (KRAS(G12C) [1]) [nM] | DC50 (KRAS(G12C) [2]) [nM] | EC50 [3] [nM] | IC50 (HSP90a protein) [nM]
C=CC(=O)N1CCN(c2nc(OC[C@@H]3CC[C@H](CN4CCN(C(=O)C5CCN(Cc6ccc(-n7c(O)nnc7-c7cc(C)c(O)cc7O)cc6)CC5)CC4)N3C)nc3c2CCN(c2cccc4cccc(Cl)c24)C3)C[C@@H]1CC#N [Compound 319, 2-[(2S)-4-[7-(8-chloronaphthalen-1-yl)-2-{[(2S,5R)-5-({4-[1-({4-[3-(2,4-dihydroxy-5-methylphenyl)-5-hydroxy-1,2,4-triazol-4-yl]phenyl}methyl)piperidine-4-carbonyl]piperazin-1-yl}methyl)-1-methylpyrrolidin-2-yl]methoxy}-5H,6H,8H-pyrido [3,4-d]pyrimidin-4-yl]-1-(prop-2-enoyl)piperazin-2-yl]acetonitrile] | < 100 | 100 to 1000 | 100 to 1000 | < 100
C=CC(=O)N1CCN(c2nc(OC[C@@H]3CC[C@H](CN4CCN(Cc5ccc(-n6c(O)nnc6-c6cc(C(C)C)c(O)cc6O)cc5)CC4)N3C)nc3c2CCN(c2cccc4cccc(Cl)c24)C3)C[C@@H]1CC#N [Compound 326, 2-[(2S)-4-[7-(8-chloronaphthalen-1-yl)-2-{[(2S,5R)-5-{[4-({4-[3-(2,4-dihydroxy-5-isopropylphenyl)-5-hydroxy-1,2,4-triazol-4-yl]-phenyl}methyl)piperazin-1-yl]methyl}-1-methylpyrrolidin-2-yl]methoxy}-5H,6H,8H-pyrido[3,4-d]pyrimidin-4-yl]-1-(prop-2-enoyl)piperazin-2-yl]acetonitrile] | < 100 | 100 to 1000 | 100 to 1000 | < 100
C=CC(=O)N1CCN(c2nc(OC[C@@H]3C[C@H](N4CCC5(CCN(Cc6ccc(-n7c(O)nnc7-c7cc(C(C)C)c(O)cc7O)cc6)CC5)CC4)CN3C)nc3c2CCN(c2cccc4cccc(Cl)c24)C3)C[C@@H]1CC#N [Compound 334, 2-[(2S)-4-[7-(8-chloronaphthalen-1-yl)-2-{[(2S,4S)-4-[9-({4-[3-(2,4-dihydroxy-5-isopropylphenyl)-5-hydroxy-1,2,4-triazol-4-yl]phenyl}methyl)-3,9-diazaspiro[5.5]undecan-3-yl]-1-methylpyrrolidin-2-yl]methoxy}-5H,6H,8H-pyrido[3,4-d]pyrimidin-4-yl]-1-(prop-2-enoyl)piperazin-2-yl]acetonitrile] | < 100 | 100 to 1000 | < 100 | < 100
C=CC(=O)N1CCN(c2nc(OC[C@@H]3C[C@H](N4CCC(C(=O)N5CCN(Cc6ccc(-n7c(C(=O)NCC(F)(F)F)nnc7-c7cc(C)c(O)cc7O)cc6)CC5)CC4)CN3C)nc3c2CCN(c2cccc4cccc(Cl)c24)C3)C[C@@H]1CC#N [Compound 336, 4-{4-[(4-{1-[(3S,5S)-5-({[7-(8-chloronaphthalen-1-yl)-4-[(3S)-3-(cyanomethyl)-4-(prop-2-enoyl)piperazin-1-yl]-5H,6H,8H-pyrido[3,4-d]pyrimidin-2-yl]oxy}methyl)-1-methylpyrrolidin-3-yl]piperidine-4-carbonyl}piperazin-1-yl)methyl]phenyl}-5-(2,4-dihydroxy-5-methylphenyl)-N-(2,2,2-trifluoroethyl)-1,2,4-triazole-3-carbox-amide] | < 100 | > 1000 | 100 to 1000 | < 100
C=CC(=O)N1CCN(c2nc(OC[C@@H]3C[C@H](C(=O)NCCc4ccc(CN5CCC(Cc6ccc(-n7c(C(=O)NCC(F)(F)F)nnc7-c7cc(C(C)C)c(O)cc7O)cc6)CC5)cc4)CN3C)nc3c2CCN(c2cccc4cccc(Cl)c24)C3)C[C@@H]1CC#N [Compound 346, 4-{4-[(1-{[4-(2-{[(3S,5S)-5-({[7-(8-chloronaphthalen-1-yl)-4-[(3S)-3-(cyanomethyl)-4-(prop-2-enoyl)piperazin-1-yl]-5H,6H,8H-pyrido[3,4-d]pyrimidin-2-yl]oxy}methyl)-1-methylpyrrolidin-3-yl]formamido}ethyl)phenyl]methyl}piperidin-4-yl)methyl]phenyl}-5-(2,4-dihydroxy-5-isopropylphenyl)-N-(2,2,2-trifluoroethyl)-1,2,4-triazole-3-carboxamide] | < 100 | 100 to 1000 | 100 to 1000 | < 100
C=CC(=O)N1CCN(c2nc(OC[C@@H]3C[C@H](C(=O)N4CCN(Cc5ccc(-n6c(C(=O)NCC(F)(F)F)nnc6-c6cc(C)c(O)cc6O)cc5)CC4)CN3C)nc3c2CCN(c2cccc4cccc(Cl)c24)C3)C[C@@H]1CC#N [Compound 347, 4-[4-({4-[(3S,5S)-5-({[7-(8-chloronaphthalen-1-yl)-4-[(3S)-3-(cyanomethyl)-4-(prop-2-enoyl)piperazin-1-yl]-5H,6H,8H-pyrido[3,4-d]pyrimidin-2-yl]oxy}methyl)-1-methylpyrrolidine-3-carbonyl]piperazin-1-yl}methyl)phenyl]-5-(2,4-dihydroxy-5-methylphenyl)-N-(2,2,2-trifluoroethyl)-1,2,4-triazole-3-carboxamide] | < 100 | > 1000 | 100 to 1000 | < 100
C=CC(=O)N1CCN(c2nc(OC[C@@H]3C[C@H](N4CCC(C(=O)N5CC6(CCN(Cc7ccc(-n8c(O)nnc8-c8cc(C(C)C)c(O)cc8O)cc7)CC6)C5)CC4)CN3C)nc3c2CCN(c2cccc4cccc(Cl)c24)C3)C[C@@H]1CC#N [Compound 348, 2-[(2S)-4-[7-(8-chloronaphthalen-1-yl)-2-{[(2S,4S)-4-{4-[7-({4-[3-(2,4-dihydroxy-5-isopropylphenyl)-5-hydroxy-1,2,4-triazol-4-yl]phenyl}methyl)-2,7-diazaspiro [3.5]nonane-2-carbonyl]piperidin-1-yl}-1-methylpyrrolidin-2-yl]methoxy}-5H,6-H,8H-pyrido[3,4-d]pyrimidin-4-yl]-1-(prop-2-enoyl)piperazin-2-yl]acetonitrile] | < 100 | 100 to 1000 | 100 to 1000 | < 100
C=CC(=O)N1CCN(c2nc(OC[C@@H]3C[C@H](C(=O)NCCOCCOc4ccc(-n5c(O)nnc5-c5cc(CC)c(O)cc5O)cc4)CN3C)nc3c2CCN(c2cccc4cccc(Cl)c24)C3)C[C@@H]1CC#N [Compound 349, (3S,5S)-5-({[7-(8-chloronaphthalen-1-yl)-4-[(3S)-3-(cyanomethyl)-4-(prop-2-enoyl)piperazin-1-yl]-5H,6H,8H-pyrido[3,4-d]pyrimidin-2-yl]oxy}methyl)-N-[2-(2-{4-[3-(5-ethyl-2,4-dihydroxyphenyl)-5-hydroxy-1,2,4-triazol-4-yl]phenoxy}ethoxy)ethyl]-1-methylpyrrolidine-3-carboxamide] | < 100 | 100 to 1000 | > 1000 | < 100
C=CC(=O)N1CCN(c2nc(OC[C@@H]3C[C@H](N4CCC(C(=O)N5CCC6(CC5)CN(Cc5ccc(-n7c(O)nnc7-c7cc(C(C)C)c(O)cc7O)cc5)C6)CC4)CN3C)nc3c2CCN(c2cccc4cccc(Cl)c24)C3)C[C@@H]1CC#N [Compound 350, 2-[(2S)-4-[7-(8-chloronaphthalen-1-yl)-2-{[(2S,4S)-4-{4-[2-({4-[3-(2,4-dihydroxy-5-isopropylphenyl)-5-hydroxy-1,2,4-triazol-4-yl]phenyl}methyl)-2,7-diazaspiro [3.5]nonane-7-carbonyl]piperidin-1-yl}-1-methylpyrrolidin-2-yl]methoxy}-5H,6-H,8H-pyrido[3,4-d]pyrimidin-4-yl]-1-(prop-2-enoyl)piperazin-2-yl]acetonitrile] | < 100 | 100 to 1000 | 100 to 1000 | < 100
C=CC(=O)N1CCN(c2nc(OCCN3CCN(Cc4ccc(-n5c(O)nnc5-c5cc(C(C)C)c(O)cc5O)cc4)CC3)nc3c2CCN(c2cccc4cccc(Cl)c24)C3)C[C@@H]1CC#N [Compound 351, 2-[(2S)-4-[7-(8-chloronaphthalen-1-yl)-2-{2-[4-({4-[3-(2,4-dihydroxy-5-isopropylphenyl)-5-hydroxy-1,2,4-triazol-4-yl]phenyl}methyl)piperazin-1-yl]ethoxy}-5H,6-H,8H-pyrido[3,4-d]pyrimidin-4-yl]-1-(prop-2-enoyl)piperazin-2-yl]acetonitrile] | < 100 | 100 to 1000 | 100 to 1000 | < 100
